Assay results from ChEMBL document CHEMBL4130404, “Lamellodysidines A and B, Sesquiterpenes Isolated from the Marine Sponge Lamellodysidea herbacea” (J Nat Prod, 2017).
Activity calls are given as the source filed them.

Columns and labels:
Macrophage [1] = assay: Inhibition of cholesterol ester accumulation in macrophages (unknown origin); type: functional, cell-based
Macrophage [2] = assay: Inhibition of RANKL-induced formation of multinuclear osteoclasts in macrophages (unknown origin); type: functional, cell-based
Homo sapiens [3] = species: Homo sapiens; assay: Inhibition of ubiquitin/proteasome (unknown origin)
[4] = molecular target: T1, Ubiquitin-like modifier-activating enzyme 1 (Homo sapiens) (UniProt P22314); assay: Inhibition of ubiquitin/ubiquitin-activating enzyme E1 (unknown origin)
T1 sequence (whole entry): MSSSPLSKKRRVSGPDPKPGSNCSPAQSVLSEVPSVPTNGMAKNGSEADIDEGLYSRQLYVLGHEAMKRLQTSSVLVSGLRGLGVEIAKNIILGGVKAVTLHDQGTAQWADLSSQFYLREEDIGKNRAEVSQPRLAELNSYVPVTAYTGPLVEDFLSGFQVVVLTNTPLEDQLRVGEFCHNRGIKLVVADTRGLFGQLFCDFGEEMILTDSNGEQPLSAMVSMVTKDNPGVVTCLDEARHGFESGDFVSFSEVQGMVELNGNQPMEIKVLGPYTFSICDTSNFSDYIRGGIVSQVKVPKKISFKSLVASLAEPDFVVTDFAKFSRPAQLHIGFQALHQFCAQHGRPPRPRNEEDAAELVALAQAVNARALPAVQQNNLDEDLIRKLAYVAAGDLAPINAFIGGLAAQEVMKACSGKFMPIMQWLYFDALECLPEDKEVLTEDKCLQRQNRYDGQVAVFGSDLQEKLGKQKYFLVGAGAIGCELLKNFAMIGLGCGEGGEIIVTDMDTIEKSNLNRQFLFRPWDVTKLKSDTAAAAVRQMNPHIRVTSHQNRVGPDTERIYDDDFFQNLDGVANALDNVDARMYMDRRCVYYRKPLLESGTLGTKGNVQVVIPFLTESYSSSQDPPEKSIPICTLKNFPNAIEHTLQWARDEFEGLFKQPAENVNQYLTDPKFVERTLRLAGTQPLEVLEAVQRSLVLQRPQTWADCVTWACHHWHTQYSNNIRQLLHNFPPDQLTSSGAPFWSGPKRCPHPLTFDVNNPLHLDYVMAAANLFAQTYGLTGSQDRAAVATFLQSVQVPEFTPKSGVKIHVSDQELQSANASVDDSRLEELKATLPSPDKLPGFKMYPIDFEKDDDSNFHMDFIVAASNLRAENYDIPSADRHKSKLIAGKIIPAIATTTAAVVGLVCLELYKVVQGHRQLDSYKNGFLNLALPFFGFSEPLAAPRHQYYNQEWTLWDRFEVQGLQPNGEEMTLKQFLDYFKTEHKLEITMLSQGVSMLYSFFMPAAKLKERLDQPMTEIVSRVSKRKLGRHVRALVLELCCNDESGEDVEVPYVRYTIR

Homo sapiens [5] = species: Homo sapiens; assay: Inhibition of ubiquitin/Ubc13/Uev1A (unknown origin)
[6] = molecular target: Tumour suppressor p53/oncoprotein Mdm2 (Homo sapiens) (UniProt P04637+Q00987); assay: Inhibition of ubiquitin/p53/Mdm2 (unknown origin); type: protein assay
Sequence of Tumour suppressor p53/oncoprotein Mdm2 (Homo sapiens) (P04637 whole entry, looked up): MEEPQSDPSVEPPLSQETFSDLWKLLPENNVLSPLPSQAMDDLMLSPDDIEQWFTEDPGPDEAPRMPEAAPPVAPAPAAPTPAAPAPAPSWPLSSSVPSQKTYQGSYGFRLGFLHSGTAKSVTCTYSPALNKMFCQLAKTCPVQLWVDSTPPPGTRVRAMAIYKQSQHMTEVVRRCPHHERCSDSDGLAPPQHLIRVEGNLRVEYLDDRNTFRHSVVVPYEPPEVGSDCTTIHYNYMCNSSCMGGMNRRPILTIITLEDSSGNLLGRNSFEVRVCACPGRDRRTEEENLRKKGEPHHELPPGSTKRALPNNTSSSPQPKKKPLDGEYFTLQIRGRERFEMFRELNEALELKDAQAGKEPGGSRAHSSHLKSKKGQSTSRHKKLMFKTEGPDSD
Sequence of Tumour suppressor p53/oncoprotein Mdm2 (Homo sapiens) (Q00987 whole entry, looked up): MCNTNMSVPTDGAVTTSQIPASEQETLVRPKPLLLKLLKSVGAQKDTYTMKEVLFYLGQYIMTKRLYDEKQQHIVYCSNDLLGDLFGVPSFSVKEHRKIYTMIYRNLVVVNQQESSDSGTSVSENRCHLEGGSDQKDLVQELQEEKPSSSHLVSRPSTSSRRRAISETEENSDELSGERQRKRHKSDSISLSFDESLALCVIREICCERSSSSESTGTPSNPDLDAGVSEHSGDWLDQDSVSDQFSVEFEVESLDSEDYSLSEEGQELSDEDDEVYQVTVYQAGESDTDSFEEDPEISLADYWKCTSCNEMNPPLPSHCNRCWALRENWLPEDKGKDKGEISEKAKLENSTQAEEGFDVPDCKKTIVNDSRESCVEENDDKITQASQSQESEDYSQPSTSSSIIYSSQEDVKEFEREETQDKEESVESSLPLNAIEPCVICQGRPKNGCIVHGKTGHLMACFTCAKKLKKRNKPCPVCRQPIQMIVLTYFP

[7] = molecular target: Ubiquitin carboxyl-terminal hydrolase 7 (Homo sapiens) (UniProt Q93009); assay: Inhibition of ubiquitin/USP7 (unknown origin)
Sequence of Ubiquitin carboxyl-terminal hydrolase 7 (Homo sapiens) (Q93009 whole entry, looked up): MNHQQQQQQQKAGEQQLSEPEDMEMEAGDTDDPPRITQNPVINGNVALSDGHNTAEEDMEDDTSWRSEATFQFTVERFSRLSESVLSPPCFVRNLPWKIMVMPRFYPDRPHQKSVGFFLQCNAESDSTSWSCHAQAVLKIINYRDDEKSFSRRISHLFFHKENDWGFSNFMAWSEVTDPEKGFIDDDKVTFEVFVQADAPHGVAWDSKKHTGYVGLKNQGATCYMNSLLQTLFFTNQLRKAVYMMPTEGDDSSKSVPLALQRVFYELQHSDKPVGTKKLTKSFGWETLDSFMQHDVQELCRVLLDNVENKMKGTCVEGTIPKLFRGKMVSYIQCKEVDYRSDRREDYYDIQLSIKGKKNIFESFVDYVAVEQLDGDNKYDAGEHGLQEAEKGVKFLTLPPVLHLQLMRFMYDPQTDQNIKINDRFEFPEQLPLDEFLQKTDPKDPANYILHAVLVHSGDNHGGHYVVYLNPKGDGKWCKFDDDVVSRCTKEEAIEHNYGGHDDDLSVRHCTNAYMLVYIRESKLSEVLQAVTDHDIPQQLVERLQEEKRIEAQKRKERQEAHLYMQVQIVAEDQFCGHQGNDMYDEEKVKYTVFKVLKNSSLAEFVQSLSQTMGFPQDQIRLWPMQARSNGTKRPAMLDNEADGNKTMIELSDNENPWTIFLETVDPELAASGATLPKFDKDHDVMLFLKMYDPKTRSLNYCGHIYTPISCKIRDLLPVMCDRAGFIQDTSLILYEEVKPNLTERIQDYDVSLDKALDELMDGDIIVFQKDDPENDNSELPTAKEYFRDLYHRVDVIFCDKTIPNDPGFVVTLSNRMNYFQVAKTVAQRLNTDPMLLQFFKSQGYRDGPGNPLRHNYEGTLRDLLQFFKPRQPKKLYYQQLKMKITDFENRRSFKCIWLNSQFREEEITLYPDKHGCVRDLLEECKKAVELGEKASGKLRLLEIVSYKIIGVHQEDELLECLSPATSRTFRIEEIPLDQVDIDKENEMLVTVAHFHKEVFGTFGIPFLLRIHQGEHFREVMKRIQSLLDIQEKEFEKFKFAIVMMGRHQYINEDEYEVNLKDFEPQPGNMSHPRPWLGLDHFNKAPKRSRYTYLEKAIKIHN

Measured: inhibition

CC1C2C=CC3(C)C1(C)CCC31C(=O)O[C@H](O)[C@@H]21 (some centres not stated)
inactive: Macrophage [1] | Macrophage [2] | Homo sapiens [3] | [4] | Homo sapiens [5] | [6] | [7]
